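Compound exposure: 48 hours, 5 concentrations, 96-well plates. At the GI50, growth is halved.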 Activity calls are given as the source filed them. Rule as the data show it: active = GI50 up to about 1.1 µM and inactive = higher. *1 amine or outer side, *2 acyl side, *3 side chain or, on linkers, in order; H or OH if unused. Where a SMILES comes first, the peptide text is derived from it. Non-standard residues stand in square brackets, D forms with d. Residues, ends and D or L forms follow the SMILES beside them. Bridges are numbered along the chain shown (N, C = ends). [ ]: non-standard residue; d: D form. ξ: configuration not given here. X10 = CCC(C)C(N[*:1])C(O)CC(=O)O[C@H](C(=O)C(C)C(=O)[*:2])C(C)C; NMeY = CN[C@@H](Cc1ccc(O)cc1)C(=O)O; β3hI = CC[CH](C)[CH](N)CC(=O)O; ξNMeL = CNC(CC(C)C)C(=O)O; ξT = CC(O)C(N)C(=O)O
Experiments:
Assay in all cases: DTP human tumour cell line panel, 48 h
786-0 = tested on: 786-0
UACC-257 = tested on: UACC-257
CAKI-1 = tested on: CAKI-1
NCI-H226 = tested on: NCI-H226
SK-OV-3 = tested on: SK-OV-3
SK-MEL-5 = tested on: SK-MEL-5
HOP-62 = tested on: HOP-62
HCT-15 = tested on: HCT-15
T47D = tested on: T47D
SK-MEL-2 = tested on: SK-MEL-2
HT-29 = tested on: HT-29
KM12 = tested on: KM12
ACHN = tested on: ACHN
UO-31 = tested on: UO-31
COLO 205 = tested on: COLO 205
OVCAR-8 = tested on: OVCAR-8
M14 = tested on: M14
NCI-H522 = tested on: NCI-H522
BT-549 = tested on: BT-549
SK-MEL-28 = tested on: SK-MEL-28

Row | Compound | GI50 (786-0) | GI50 (UACC-257) | GI50 (CAKI-1) | GI50 (NCI-H226) | GI50 (SK-OV-3) | GI50 (SK-MEL-5) | GI50 (HOP-62) | GI50 (HCT-15) [µM] | GI50 (T47D) | GI50 (SK-MEL-2) | GI50 (HT-29) | GI50 (KM12) | GI50 (ACHN) | GI50 (UO-31) | GI50 (COLO 205) | GI50 (OVCAR-8) | GI50 (M14) | GI50 (NCI-H522) | GI50 (BT-549) | GI50 (SK-MEL-28)
1 | CCC1(c2ccccc2)C(=O)N=C(c2ccccc2)N1CCc1ccccc1 (stereo not given) | > 100 µM (inactive) | > 100 µM (inactive) | > 100 µM (inactive) | > 100 µM (inactive) | > 100 µM (inactive) | > 100 µM (inactive) | > 100 µM (inactive) | > 100 | > 100 µM (inactive) | > 100 µM (inactive) | > 100 µM (inactive) | > 100 µM (inactive) | > 100 µM (inactive) | > 100 µM (inactive) | > 100 µM (inactive) | > 100 µM (inactive) | > 100 µM (inactive) | > 100 µM (inactive) | > 100 µM (inactive) | > 100 µM (inactive)
2 | COc1ccc2nc3ccc(OC)cc3c([S+]([O-])CCCl)c2c1 (stereo not given) | 1.76 µM (inactive) | 2.21 µM (inactive) | 2.62 µM (inactive) | 16.8 µM (inactive) | 20.7 µM (inactive) | 14.9 µM (inactive) | 18.1 µM (inactive) | 2.65 | 2.04 µM (inactive) | 17.7 µM (inactive) | 2.04 µM (inactive) | 16.6 µM (inactive) | 2.18 µM (inactive) | 2.28 µM (inactive) | 1.77 µM (inactive) | 2.67 µM (inactive) | 3.52 µM (inactive) | 1.67 µM (inactive) | 15.1 µM (inactive) | 3.73 µM (inactive)
3 | CCOC(=O)Oc1ccc(C(CNC(C)C)OC(=O)OCC)cc1OC(=O)OCC (stereo not given) | > 100 µM (inactive) | > 100 µM (inactive) | > 100 µM (inactive) | > 100 µM (inactive) | > 100 µM (inactive) | > 100 µM (inactive) | > 100 µM (inactive) | > 100 | > 100 µM (inactive) | > 100 µM (inactive) | > 100 µM (inactive) | > 100 µM (inactive) | > 100 µM (inactive) | 43.4 µM (inactive) | > 100 µM (inactive) | > 100 µM (inactive) | > 100 µM (inactive) | 49.9 µM (inactive) | > 100 µM (inactive) | > 100 µM (inactive)
4 | CN(C)CCn1c(=O)c2ccc3c4c(nn3CCN(C)C)c3cc([N+](=O)[O-])ccc3n(c1=O)c24 | < 0.0124 µM (active) | 0.617 µM (active) | 0.0481 µM (active) | 0.518 µM (active) | 0.0783 µM (active) | 0.594 µM (active) | < 0.0212 µM (active) | 0.0261 | 0.249 µM (active) | 0.133 µM (active) | < 0.0112 µM (active) | 0.0263 µM (active) | 0.0384 µM (active) | 0.0661 µM (active) | 0.0548 µM (active) | 0.049 µM (active) | 0.222 µM (active) | < 0.01 µM (active) | 0.906 µM (active) | 0.51 µM (active)
5 | CCC(C)C(CC(=O)N1CCCC1C(=O)NC(C(=O)NC(C(=O)NCC(=O)NC(CC(N)=O)C(=O)NC(C(=O)NC(C(=O)NC(CCCCN)C(N)=O)C(C)CC)C(C)CC)C(C)C)C(C)CC)NC(=O)C(N)C(C)CC (stereo not drawn) (H-I[β3hI]PIVGNIIK-NH2; configuration not given here) | > 50 µM (inactive) | > 50 µM (inactive) | > 50 µM (inactive) | > 50 µM (inactive) | > 50 µM (inactive) | > 50 µM (inactive) | > 50 µM (inactive) | > 50 | > 50 µM (inactive) | > 50 µM (inactive) | > 50 µM (inactive) | > 50 µM (inactive) | > 50 µM (inactive) | > 50 µM (inactive) | > 50 µM (inactive) | > 50 µM (inactive) | > 50 µM (inactive) | > 50 µM (inactive) | > 50 µM (inactive) | > 50 µM (inactive)
6 | CCC(C)C1NC(=O)C(NC(=O)C(CC(C)C)N(C)C(=O)[C@@H]2CCCN2)C(C)OC(=O)[C@H](Cc2ccc(OC)cc2)N(C)C(=O)[C@@H]2CCCN2C(=O)[C@H](CC(C)C)NC(=O)C(C)C(=O)[C@H](C(C)C)OC(=O)CC1O (stereo not given in full) (H-P[ξNMeL][ξT][X10]LP[NMeY](Me); ester 3-C) | 0.000564 µM (active) | 0.000815 µM (active) | 0.00869 µM (active) | < 0.01 µM (active) | 0.000386 µM (active) | < 0.0001 µM (active) | 0.00126 µM (active) | 0.016 | 0.000185 µM (active) | < 0.01 µM (active) | 0.000195 µM (active) | < 0.01 µM (active) | 0.00234 µM (active) | 0.0214 µM (active) | 0.000153 µM (active) | 0.00221 µM (active) | 0.000222 µM (active) | 0.000366 µM (active) | 0.00156 µM (active) | 0.00014 µM (active)
7 | NC(=O)c1cc(N2CC2)c([N+](=O)[O-])cc1[N+](=O)[O-] [TRETAZICAR] | > 100 µM (inactive) | > 100 µM (inactive) | > 100 µM (inactive) | > 100 µM (inactive) | > 100 µM (inactive) | > 200 µM (inactive) | > 100 µM (inactive) | > 145 | > 200 µM (inactive) | > 20 µM (inactive) | > 100 µM (inactive) | > 100 µM (inactive) | > 100 µM (inactive) | > 100 µM (inactive) | > 100 µM (inactive) | > 100 µM (inactive) | > 100 µM (inactive) | > 100 µM (inactive) | > 100 µM (inactive) | > 200 µM (inactive)
